Laboratory results published in ChEMBL document CHEMBL2321683, “Discovery of potent, selective and orally bioavailable imidazo[1,5-a]pyrazine derived ACK1 inhibitors” (Bioorg Med Chem Lett, 2013).

Legend:
Activated CDC42 kinase 1 [1] = target: T1, Activated CDC42 kinase 1 (Homo sapiens, UniProt Q07912)
Target sequence in this assay (Q07912 whole entry): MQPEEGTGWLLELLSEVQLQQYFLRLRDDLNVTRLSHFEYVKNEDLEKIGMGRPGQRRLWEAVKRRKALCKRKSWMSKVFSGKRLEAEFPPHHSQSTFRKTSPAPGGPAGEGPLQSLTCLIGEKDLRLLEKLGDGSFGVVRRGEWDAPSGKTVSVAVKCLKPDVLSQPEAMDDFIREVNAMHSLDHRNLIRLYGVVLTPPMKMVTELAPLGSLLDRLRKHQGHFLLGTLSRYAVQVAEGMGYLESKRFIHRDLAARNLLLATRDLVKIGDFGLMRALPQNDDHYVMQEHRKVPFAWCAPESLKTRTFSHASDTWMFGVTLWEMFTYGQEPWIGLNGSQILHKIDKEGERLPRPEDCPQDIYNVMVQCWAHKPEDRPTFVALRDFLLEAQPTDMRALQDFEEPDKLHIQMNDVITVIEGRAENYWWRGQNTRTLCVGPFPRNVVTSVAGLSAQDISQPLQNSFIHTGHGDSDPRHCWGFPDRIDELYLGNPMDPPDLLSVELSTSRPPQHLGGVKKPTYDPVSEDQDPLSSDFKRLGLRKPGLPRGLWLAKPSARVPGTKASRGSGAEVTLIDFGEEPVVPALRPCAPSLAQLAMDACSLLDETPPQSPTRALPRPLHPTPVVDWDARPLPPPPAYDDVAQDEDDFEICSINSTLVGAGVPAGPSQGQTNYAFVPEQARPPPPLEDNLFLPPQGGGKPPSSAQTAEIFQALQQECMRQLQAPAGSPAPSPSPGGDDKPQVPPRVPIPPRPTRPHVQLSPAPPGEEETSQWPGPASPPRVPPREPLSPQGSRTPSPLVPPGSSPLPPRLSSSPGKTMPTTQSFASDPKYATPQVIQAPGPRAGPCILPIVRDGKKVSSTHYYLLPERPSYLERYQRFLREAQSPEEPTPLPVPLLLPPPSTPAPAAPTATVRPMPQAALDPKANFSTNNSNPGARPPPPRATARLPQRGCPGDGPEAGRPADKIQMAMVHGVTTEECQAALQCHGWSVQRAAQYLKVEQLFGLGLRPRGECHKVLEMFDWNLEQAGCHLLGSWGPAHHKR

[2] = Half life in mouse at 20 mg/kg, po; type: ADME, organism-based; set-up: dose 20 mg/kg, route oral; conditions: in vivo
[3] = (§1) Oral bioavailability in mouse at 20 mg/kg; type: ADME, organism-based; conditions: in vivo
[4] = AUC in mouse at 20 mg/kg, po; type: ADME, organism-based; set-up: dose 20 mg/kg, route oral; conditions: plasma
[5] = Clearance in mouse at 2 mg/kg, iv; type: ADME, organism-based; set-up: dose 2 mg/kg, route intravenous; conditions: in vivo
[6] = Volume of distribution at steady state in mouse at 2 mg/kg, iv; type: ADME, organism-based; set-up: dose 2 mg/kg, route intravenous; conditions: in vivo, read-out: Vdss
[7] = Cmax in mouse at 20 mg/kg, po; type: ADME, organism-based; set-up: dose 20 mg/kg, route oral; conditions: in vivo
Activated CDC42 kinase 1 [8] = target: T1, Activated CDC42 kinase 1; remark: listed apart in the source
Target sequence in this assay (Q07912 whole entry): as above

[9] = Permeability of the compound by PAMPA at pH 5; type: ADME; conditions: read-out: permeability
[10] = target: T2, Tyrosine-protein kinase TXK (Homo sapiens) (UniProt P42681); assay: Inhibition of TXK (unknown origin) at 1 uM
T2 sequence (whole entry): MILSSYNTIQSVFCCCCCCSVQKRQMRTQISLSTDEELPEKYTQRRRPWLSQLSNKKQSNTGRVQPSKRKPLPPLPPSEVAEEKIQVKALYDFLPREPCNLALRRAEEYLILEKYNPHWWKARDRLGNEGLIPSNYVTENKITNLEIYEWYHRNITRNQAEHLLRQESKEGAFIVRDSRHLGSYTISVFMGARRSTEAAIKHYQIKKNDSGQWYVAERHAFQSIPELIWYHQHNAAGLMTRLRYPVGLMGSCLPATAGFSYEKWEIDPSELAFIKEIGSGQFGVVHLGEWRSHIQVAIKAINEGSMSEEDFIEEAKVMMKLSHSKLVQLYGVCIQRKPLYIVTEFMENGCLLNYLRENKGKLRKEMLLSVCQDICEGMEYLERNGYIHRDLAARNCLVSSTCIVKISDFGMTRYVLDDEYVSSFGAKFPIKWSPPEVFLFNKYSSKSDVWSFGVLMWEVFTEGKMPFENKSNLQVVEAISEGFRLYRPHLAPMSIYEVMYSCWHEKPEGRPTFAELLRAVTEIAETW

Cytochrome P450 1A2 = target: T3, Cytochrome P450 1A2 (Homo sapiens, UniProt P05177); assay: Inhibition of CYP1A2 (unknown origin); type: ADME
T3 sequence (P05177 whole entry): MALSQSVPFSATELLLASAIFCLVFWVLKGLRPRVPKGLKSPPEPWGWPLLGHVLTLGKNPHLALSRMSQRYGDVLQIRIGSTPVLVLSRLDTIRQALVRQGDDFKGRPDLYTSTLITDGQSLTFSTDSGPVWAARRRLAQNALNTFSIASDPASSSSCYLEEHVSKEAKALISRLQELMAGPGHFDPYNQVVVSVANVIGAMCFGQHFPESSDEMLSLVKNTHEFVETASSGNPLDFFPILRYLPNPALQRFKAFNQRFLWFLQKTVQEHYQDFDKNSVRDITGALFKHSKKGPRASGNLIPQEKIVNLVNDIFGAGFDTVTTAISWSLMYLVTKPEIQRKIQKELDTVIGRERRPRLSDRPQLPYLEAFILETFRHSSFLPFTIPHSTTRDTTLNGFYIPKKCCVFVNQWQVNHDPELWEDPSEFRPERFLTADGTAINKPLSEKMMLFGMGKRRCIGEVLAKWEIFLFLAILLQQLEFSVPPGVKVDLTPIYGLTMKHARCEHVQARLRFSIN

Cytochrome P450 2C9 = Cytochrome P450 2C9 (Homo sapiens, UniProt P11712); assay: Inhibition of CYP2C9 (unknown origin); type: ADME
[11] = target: Tyrosine-protein kinase Blk (Homo sapiens) (UniProt P51451); assay: Inhibition of BLK (unknown origin) at 1 uM
[12] = target: Tyrosine-protein kinase FRK (Homo sapiens) (UniProt P42685); assay: Inhibition of FRK (unknown origin) at 1 uM
[13] = target: Tyrosine-protein kinase Srms (Homo sapiens) (UniProt Q9H3Y6); assay: Inhibition of SRMS (unknown origin) at 1 uM
[14] = Permeability of the compound by PAMPA at pH 7.4; type: ADME; conditions: read-out: permeability
[15] = target: Tyrosine-protein kinase Fgr (Homo sapiens) (UniProt P09769); assay: Inhibition of FGR (unknown origin) at 1 uM
[16] = target: Tyrosine-protein kinase Fyn (Homo sapiens) (UniProt P06241); assay: Inhibition of FYN (unknown origin) at 1 uM
Activated CDC42 kinase 1 [17] = target: T1, Activated CDC42 kinase 1; conditions: 1 uM
Target sequence in this assay (Q07912 whole entry, looked up): as the sequence (Q07912 whole entry) above

[18] = target: Tyrosine-protein kinase Lyn (Homo sapiens) (UniProt P07948); assay: Inhibition of LYNB (unknown origin) at 1 uM
[19] = target: T4, Tyrosine-protein kinase Tec (Homo sapiens) (UniProt P42680); assay: Inhibition of TEC (unknown origin) at 1 uM
T4 sequence (whole entry): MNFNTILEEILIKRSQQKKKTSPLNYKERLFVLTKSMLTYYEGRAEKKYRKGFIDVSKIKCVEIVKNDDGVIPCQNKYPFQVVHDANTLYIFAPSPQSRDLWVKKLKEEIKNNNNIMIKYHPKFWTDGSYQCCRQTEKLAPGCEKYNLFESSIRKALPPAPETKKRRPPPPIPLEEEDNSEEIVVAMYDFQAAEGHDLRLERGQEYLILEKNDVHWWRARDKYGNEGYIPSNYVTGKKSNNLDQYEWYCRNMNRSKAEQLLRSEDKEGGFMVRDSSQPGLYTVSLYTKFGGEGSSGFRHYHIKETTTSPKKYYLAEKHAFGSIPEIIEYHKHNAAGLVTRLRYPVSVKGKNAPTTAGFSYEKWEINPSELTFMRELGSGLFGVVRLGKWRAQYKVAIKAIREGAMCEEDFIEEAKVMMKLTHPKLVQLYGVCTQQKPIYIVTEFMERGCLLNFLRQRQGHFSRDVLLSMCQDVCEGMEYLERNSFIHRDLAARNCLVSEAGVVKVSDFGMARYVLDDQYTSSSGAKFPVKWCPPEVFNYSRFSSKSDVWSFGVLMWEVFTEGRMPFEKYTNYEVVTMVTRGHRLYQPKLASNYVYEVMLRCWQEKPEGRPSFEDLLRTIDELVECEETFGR

[20] = target: Tyrosine-protein kinase Lck (Homo sapiens) (UniProt P06239); assay: Inhibition of LCK (unknown origin) at 1 uM
Cytochrome P450 2D6 = Cytochrome P450 2D6 (Homo sapiens, UniProt P10635); assay: Inhibition of CYP2D6 (unknown origin); type: ADME
[21] = target: Tyrosine-protein kinase HCK (Homo sapiens) (UniProt P08631); assay: Inhibition of HCK (unknown origin) at 1 uM
[22] = target: Proto-oncogene tyrosine-protein kinase Src (Homo sapiens) (UniProt P12931); assay: Inhibition of SRC (unknown origin) at 1 uM
[23] = target: Tyrosine-protein kinase Yes (Homo sapiens) (UniProt P07947); assay: Inhibition of YES (unknown origin) at 1 uM
Cytochrome P450 3A4 = Cytochrome P450 3A4 (Homo sapiens, UniProt P08684); assay: Inhibition of CYP3A4 (unknown origin); type: ADME
[24] = Aqueous solubility of the compound at pH 7.4; type: physicochemical
Mus musculus = assay: as §1; type: ADME, organism-based; conditions: in vivo

Sequence of Tyrosine-protein kinase Lck (Homo sapiens) (P06239 2-509 limits assumed): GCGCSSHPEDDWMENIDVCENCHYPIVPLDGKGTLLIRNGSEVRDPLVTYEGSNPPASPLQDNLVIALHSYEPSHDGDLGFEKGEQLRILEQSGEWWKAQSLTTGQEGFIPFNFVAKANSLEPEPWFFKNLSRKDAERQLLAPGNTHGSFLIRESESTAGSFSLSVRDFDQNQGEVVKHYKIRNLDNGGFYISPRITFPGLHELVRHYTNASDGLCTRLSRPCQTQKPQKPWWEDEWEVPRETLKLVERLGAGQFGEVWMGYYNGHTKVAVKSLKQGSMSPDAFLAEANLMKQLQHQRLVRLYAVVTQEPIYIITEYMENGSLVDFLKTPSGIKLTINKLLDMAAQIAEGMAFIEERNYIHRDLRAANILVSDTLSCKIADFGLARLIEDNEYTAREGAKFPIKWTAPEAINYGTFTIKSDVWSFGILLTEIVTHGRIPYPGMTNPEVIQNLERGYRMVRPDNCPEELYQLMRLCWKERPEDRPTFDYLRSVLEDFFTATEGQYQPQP
Sequence of Tyrosine-protein kinase Lyn (Homo sapiens) (P07948 2-512 limits assumed): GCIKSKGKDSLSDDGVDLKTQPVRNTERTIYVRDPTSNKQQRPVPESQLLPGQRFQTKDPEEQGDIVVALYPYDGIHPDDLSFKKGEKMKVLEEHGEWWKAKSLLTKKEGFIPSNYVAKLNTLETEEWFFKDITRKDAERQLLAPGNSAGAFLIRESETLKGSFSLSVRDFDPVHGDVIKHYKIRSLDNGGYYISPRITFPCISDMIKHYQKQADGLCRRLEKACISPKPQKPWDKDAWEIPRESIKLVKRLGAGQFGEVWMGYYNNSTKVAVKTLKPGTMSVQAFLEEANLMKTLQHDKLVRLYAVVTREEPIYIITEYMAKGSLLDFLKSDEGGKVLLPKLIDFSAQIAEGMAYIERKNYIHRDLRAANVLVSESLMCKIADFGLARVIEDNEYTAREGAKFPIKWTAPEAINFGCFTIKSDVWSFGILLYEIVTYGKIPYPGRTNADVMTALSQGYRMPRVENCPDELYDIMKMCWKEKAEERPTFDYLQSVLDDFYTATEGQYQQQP
Sequence of Cytochrome P450 2D6 (P10635 whole entry): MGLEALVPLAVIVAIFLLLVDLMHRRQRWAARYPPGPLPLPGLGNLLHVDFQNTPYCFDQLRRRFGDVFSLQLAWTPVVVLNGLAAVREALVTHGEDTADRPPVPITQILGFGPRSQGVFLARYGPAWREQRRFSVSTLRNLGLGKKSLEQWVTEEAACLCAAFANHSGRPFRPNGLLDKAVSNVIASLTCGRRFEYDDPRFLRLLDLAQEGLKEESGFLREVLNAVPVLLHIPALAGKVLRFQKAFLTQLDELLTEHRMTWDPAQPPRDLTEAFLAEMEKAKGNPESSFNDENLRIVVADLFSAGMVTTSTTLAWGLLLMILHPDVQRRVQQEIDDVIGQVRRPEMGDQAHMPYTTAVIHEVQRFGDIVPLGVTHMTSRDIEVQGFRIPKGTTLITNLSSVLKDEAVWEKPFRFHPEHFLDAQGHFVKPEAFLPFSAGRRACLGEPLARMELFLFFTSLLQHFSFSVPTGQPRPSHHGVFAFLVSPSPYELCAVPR
Sequence of Tyrosine-protein kinase Srms (Homo sapiens) (Q9H3Y6 whole entry): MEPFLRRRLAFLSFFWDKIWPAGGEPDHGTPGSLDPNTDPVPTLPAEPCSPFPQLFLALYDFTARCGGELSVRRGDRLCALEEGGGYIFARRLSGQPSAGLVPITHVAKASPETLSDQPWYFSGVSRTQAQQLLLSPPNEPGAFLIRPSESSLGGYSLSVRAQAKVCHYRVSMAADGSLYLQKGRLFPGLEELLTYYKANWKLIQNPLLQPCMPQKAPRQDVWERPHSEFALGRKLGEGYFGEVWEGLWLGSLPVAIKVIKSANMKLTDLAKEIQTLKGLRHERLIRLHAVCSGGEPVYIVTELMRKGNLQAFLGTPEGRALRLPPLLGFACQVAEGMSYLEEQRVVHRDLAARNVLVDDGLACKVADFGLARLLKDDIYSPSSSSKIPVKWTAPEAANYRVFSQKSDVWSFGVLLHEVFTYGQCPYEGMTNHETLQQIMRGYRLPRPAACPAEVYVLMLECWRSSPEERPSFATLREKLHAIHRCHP
Sequence of Tyrosine-protein kinase Blk (Homo sapiens) (P51451 2-505 limits assumed): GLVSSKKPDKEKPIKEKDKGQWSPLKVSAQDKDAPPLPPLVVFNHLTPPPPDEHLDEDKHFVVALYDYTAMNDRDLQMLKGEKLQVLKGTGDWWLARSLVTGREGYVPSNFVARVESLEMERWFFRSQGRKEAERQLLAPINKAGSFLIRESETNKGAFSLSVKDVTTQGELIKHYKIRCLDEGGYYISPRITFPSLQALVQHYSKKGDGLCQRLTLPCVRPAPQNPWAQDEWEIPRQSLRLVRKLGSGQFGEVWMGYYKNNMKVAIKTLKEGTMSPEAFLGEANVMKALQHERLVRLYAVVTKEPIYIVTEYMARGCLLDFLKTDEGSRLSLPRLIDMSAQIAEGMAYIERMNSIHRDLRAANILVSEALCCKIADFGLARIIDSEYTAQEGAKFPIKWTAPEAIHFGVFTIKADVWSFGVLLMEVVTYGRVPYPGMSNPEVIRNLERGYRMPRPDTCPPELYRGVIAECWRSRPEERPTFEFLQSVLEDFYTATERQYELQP
Sequence of Cytochrome P450 2C9 (P11712 whole entry): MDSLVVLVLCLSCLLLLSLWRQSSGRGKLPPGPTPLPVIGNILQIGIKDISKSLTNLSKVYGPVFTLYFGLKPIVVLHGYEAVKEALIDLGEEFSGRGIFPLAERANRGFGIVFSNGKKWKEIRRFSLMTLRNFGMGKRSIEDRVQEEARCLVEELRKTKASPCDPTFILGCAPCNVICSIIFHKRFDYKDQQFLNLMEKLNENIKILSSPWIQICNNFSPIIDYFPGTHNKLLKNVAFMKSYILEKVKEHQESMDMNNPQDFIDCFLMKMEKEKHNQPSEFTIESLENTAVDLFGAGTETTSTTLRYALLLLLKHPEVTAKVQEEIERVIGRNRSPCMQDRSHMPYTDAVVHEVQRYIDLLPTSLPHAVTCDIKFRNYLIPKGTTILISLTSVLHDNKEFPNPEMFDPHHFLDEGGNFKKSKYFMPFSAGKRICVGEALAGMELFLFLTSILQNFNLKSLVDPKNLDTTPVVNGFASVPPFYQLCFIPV
Sequence of Proto-oncogene tyrosine-protein kinase Src (Homo sapiens) (P12931 2-536 limits assumed): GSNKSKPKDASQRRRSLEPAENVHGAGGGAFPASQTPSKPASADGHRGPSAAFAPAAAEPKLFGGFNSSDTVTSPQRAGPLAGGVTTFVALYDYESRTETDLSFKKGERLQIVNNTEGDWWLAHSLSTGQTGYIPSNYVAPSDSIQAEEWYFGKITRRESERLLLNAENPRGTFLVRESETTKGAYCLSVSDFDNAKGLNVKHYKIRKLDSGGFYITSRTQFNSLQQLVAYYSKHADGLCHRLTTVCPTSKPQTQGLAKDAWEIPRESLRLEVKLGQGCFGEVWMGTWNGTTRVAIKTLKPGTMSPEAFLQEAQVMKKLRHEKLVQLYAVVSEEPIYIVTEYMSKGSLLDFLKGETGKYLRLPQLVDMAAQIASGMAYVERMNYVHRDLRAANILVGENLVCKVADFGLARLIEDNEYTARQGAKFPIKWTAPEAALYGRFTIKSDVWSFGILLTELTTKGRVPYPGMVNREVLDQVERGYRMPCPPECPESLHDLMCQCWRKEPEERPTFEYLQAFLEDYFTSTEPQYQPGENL

| Compound | half-life [2] | bioavailability [3] | AUC [4] | clearance [5] | Vd [6] | Cmax [7] | IC50 (Activated CDC42 kinase 1 [8]) | other results |
| --- | --- | --- | --- | --- | --- | --- | --- | --- |
| Nc1nccn2c(C3CCC3)nc(-c3ccn(Cc4ccccc4)c(=O)c3)c12 |  |  |  |  |  |  |  | IC50 (Activated CDC42 kinase 1 [1]): > 10000 nM |
| COC(C)(C)CCn1nc(Nc2c(C)cccc2C)c2cnc(Nc3ccc(OCCN4CCCC4)c(F)c3)nc21 |  |  |  |  |  |  | 20 nM |  |
| CC(O)(c1ccccc1)c1ccc(-c2nc([C@H]3C[C@@](C)(O)C3)n3ccnc(N)c23)cc1 (mixture of isomers) | 2.6 h | 105% | 3940 ng·h/mL | 89 mL/min/kg | 3.3 L/kg | 4.6 µM |  |  |
| COc1cc(Oc2ccccc2)ccc1-c1nc([C@H]2C[C@@](C)(O)C2)n2ccnc(N)c12 | 3.8 h | 98% | 8480 ng·h/mL | 39 mL/min/kg | 1.8 L/kg | 5.9 µM |  | Papp [9]: 280 ×10⁻⁶ cm/s; inhibition [10]: > 80%; IC50 (Cytochrome P450 1A2): > 20000 nM; IC50 (Cytochrome P450 2C9): > 20000 nM; inhibition [11]: > 80%; inhibition [12]: > 80%; inhibition [13]: > 80%; Papp [14]: 591 ×10⁻⁶ cm/s; inhibition [15]: > 80%; inhibition [16]: > 80%; inhibition (Activated CDC42 kinase 1 [17]): 100%; inhibition [18]: > 80%; inhibition [19]: > 80%; inhibition [20]: > 80%; IC50 (Cytochrome P450 2D6): > 20000 nM; inhibition [21]: > 80%; inhibition [22]: > 80%; inhibition [23]: > 80%; IC50 (Cytochrome P450 3A4): > 20000 nM; solubility [24]: > 100 µM |
| C[C@]1(O)C[C@@H](c2nc(-c3ccc(C(F)(F)c4ccccc4)cc3)c3c(N)nccn32)C1 | 4.3 h |  | 8540 ng·h/mL | 63 mL/min/kg | 1.7 L/kg | 5 µM |  | F (Mus musculus): 160% |
| Nc1nccn2c(C3CCC3)nc(-c3ccc(C(O)c4ccccc4)cc3)c12 (stereo not given) |  |  |  |  |  |  |  | IC50 (Activated CDC42 kinase 1 [1]): 280 nM |

The next lines start with results.

| half-life [2] | bioavailability [3] | AUC [4] | clearance [5] | Vd [6] | Cmax [7] | IC50 (Activated CDC42 kinase 1 [8]) | Compound | other results |
| --- | --- | --- | --- | --- | --- | --- | --- | --- |
| 5.5 h | 50% | 1240 ng·h/mL | 135 mL/min/kg | 9 L/kg | 0.9 µM |  | Nc1nccn2c(C3CCC3)nc(-c3ccc(Oc4ccccc4)cc3)c12 |  |
|  |  |  |  |  |  | 620 nM | c1ccc(-c2oc3ncnc(NC[C@@H]4CCCO4)c3c2-c2ccccc2)cc1 |  |
|  |  |  |  |  |  | 10 nM | c1ccc(-c2c(-c3ccc(OCCN4CCCC4)cc3)[nH]c3ncnc(NCC4SCCS4)c23)cc1 |  |
| 4.9 h | 87% | 4680 ng·h/mL | 62 mL/min/kg | 1.7 L/kg | 11.2 µM |  | C[C@]1(O)C[C@@H](c2nc(-c3ccc(Oc4ccccc4)cc3)c3c(N)nccn32)C1 |  |
